Assay results reported in article PMC7658073 (Clinical Pharmacokinetics, 2020).
“Also recorded” adds a separate entry of the source.

How the values were obtained:
Format in all cases: in vivo, human
[1] = Phase I DDI study with midazolam
[2] = Phase I DDI study with sacubitril/valsartan; details: vericiguat at steady state with sacubitril/valsartan
[3] = Phase I DDI study with sildenafil
[4] = midazolam with vericiguat 10 mg vs midazolam alone
[5] = sildenafil 100 mg with vericiguat vs with placebo

| Structure (SMILES) | Increase in AUC0–12,md (exposure) [2] | Increase in Cmax,md (peak concentration) [2] | further results |
| --- | --- | --- | --- |
| OCc1ncc2n1-c1ccc(Cl)cc1C(c1ccccc1F)=NC2 [1ʹ-hydroxy midazolam] |  |  | Decrease in AUC [1, 4]: 12%; Decrease in Cmax [1, 4]: 16% |
| C[C@H](C[C@@H](Cc1ccc(-c2ccccc2)cc1)NC(=O)CCC(=O)O)C(=O)O [LBQ657] | unchanged; also recorded: unaffected | unchanged; also recorded: unaffected |  |
| Cc1ncc2n1-c1ccc(Cl)cc1C(c1ccccc1F)=NC2 [Midazolam, reference compound] |  |  | Reduction in midazolam exposure ([1]; after 3 days pre-treatment and 1 day co-treatment with vericiguat 10 mg): 18% |
| CCOC(=O)[C@H](C)C[C@@H](Cc1ccc(-c2ccccc2)cc1)NC(=O)CCC(=O)O [Sacubitril, reference compound] | 8% | 18% |  |
| CCCc1nn(C)c2c(=O)[nH]c(-c3cc(S(=O)(=O)N4CCN(C)CC4)ccc3OCC)nc12 [Sildenafil, reference compound] |  |  | Increase in exposure of sildenafil [3, 5]: 13%; Increase in maximum concentration of sildenafil [3, 5]: 17%; Increase in exposure for sildenafil co-administered with vericiguat ([3]; sildenafil 25, 50 or 100 mg, vs sildenafil with placebo): ≤ 22.4% |
| CCCCC(=O)N(Cc1ccc(-c2ccccc2-c2nnn[nH]2)cc1)[C@H](C(=O)O)C(C)C [Valsartan, reference compound] | 12% | 13% |  |
